Measured values from US20230364204A1, “Bioactive Peptides, Compositions, Production Process, and Use of Bioactive Peptides as Anti-Tumoral Agents” (priority 2022, published 2023).

Tests used:
Type in all cases: cell-based
MDAMB231 cell line [1] = experiment: Apoptosis/necrosis flow cytometry (Annexin V-FITC / propidium iodide)
Excerpt: Annexin V is a potent marker for apoptosis since it binds to the phosphatidylserine of the cell membrane. This binding only occurs when the phosphatidylserine is externalized in the membrane, which is one of the first signals of apoptosis death. Meanwhile propidium iodide only enters the cells after a membrane rupture and can indicate a final step to cell death. The double labeling with these markers allows to distinguish apoptosis and necrosis death through the following characterization: • Annexin V^- / Pl^-: live cells • Annexin V^+ / Pl^-: cells in early apoptosis • Annexin V^+ / Pl^+: cell in late apoptosis • Annexin V^- / Pl^+: cells in necrosis
For Apoptosis/ Necrosis protocol, cells were plated 6-well sterile plates for cell culture with a cap at the density of 2.5 × 10^5 cells/well for treatments lasting 24 h or more, completing the volume with 1000 µL culture medium. The plates were incubated for 8-16 h in an incubator at 37° C. and 5% CO2. The next day, the treatments were prepared in culture medium, applying 2000 µL/well at the desired concentration, and the plate was placed in an incubator at 37° C. and 5% CO2 for the duration of treatment. After the treatment period, cells were collected in a conic 15 mL tube and washed with 200 µL of binding buffer (1×) from the FITC Annexin V Apoptosis Detection Kit I. Cells were resuspended in 100 µL/tube of binding buffer (1×) and 1 µL of Annexin V-FITC was added to each tube except the blank. Cells were then incubated for 20 min. in ice and in the dark. Then, 50 µL/tube of binding buffer was added and cells were labeled with 2 µL of Propidium Iodide (PI) at 100 µg/mL and read at the flow cytometer for size and fluorescent content (FITC and PI).
In order to determine the effects of the peptide in LDH release, autophagy induction and apoptosis/necrosis profile of MDAMB231 cell line, the Analysis of Variance (ANOVA) with Dunnet and Bonferroni post-hoc tests were applied to the significance of 5% in GraphPad Prism software version 6.0.

MDAMB231 cell line [2] = experiment: Cell cycle progression (propidium iodide flow cytometry); conditions: MDAMB231, 48 h, highest dosage
Method: For cell cycle progression method, cells were plated in 6-well sterile plates for cell culture with a cap at the density of 2.5 × 10^5 cells/well for treatments lasting 24 h or more, completing the volume with 1000 µL culture medium. The plates were incubated for 8-16 h in an incubator at 37° C. and 5% CO2. The next day, the treatments were prepared in culture medium, applying 2000 µL/well at the desired concentration, and the plates were placed in an incubator at 37° C. and 5% CO2 for the duration of treatment. After the treatment period, cells were collected in a conic 15 mL tube and washed with 1000 µL of PBS (1×). Cells were resuspended in 500 µL/tube of PBS (1×) and 4.5 mL of Ethanol 70°. Then, tubes were closed and kept at 2-4° C. for up to 2 months. Cells were washed with PBS (1×) and resuspended with 135 µL of PBS (1×). A solution of RnaseA at 100 µg/mL was added and incubated at RT for 30 minutes. After incubation, cells were labeled with 2 µL of Propidium Iodide at 100 µg/mL and read at the flow cytometer for size and DNA content.
In order to determine the effects of the peptide in cell cycle progression (MDAMB231 cell line), the Analysis of Variance (ANOVA) with Dunnet post-hoc test was applied to the significance of 5% in GraphPad Prism software version 6.0.

MDAMB231 cells = experiment: BrdU cellular proliferation, tumor cells; conditions: MDAMB231, 24 h, 0.2 µg/mL (minimum decrease)
Method: The method of Bomodeoxyuridine (BrdU) quantification was carried out according to the Standard Operational Protocols Nos. 10 and 12 of the Laboratory of Clinical Cytology of the Faculty of Pharmaceutical Sciences of Ribeirao Preto (FCFRP -USP). In this method, for the BrdU quantification, cells were plated in 96-well sterile plates for cell culture with a cap at the density of 2 × 10^4 cells/well for treatments lasting 24 h and 1 × 10^4 cells/well for treatments with 48 h or more, completing the volume to 100 µL with culture medium. The plates were incubated for 8-16 h in an incubator at 37° C. and 5% CO2. The next day, the treatments were prepared in culture medium, applying 200 µL/well at the desired concentration, and the plates were placed in an incubator at 37° C. and 5% CO2 for the duration of treatment. After the treatment period, 20 µL/well of a BrdU-labeling was added and incubated at 37° C. and 5% CO2 for 2.5 h. After incubation with BrdU labeling, the plates were stored at 2-4° C. up to 1 week. […] Substrate was developed for 15 minutes and reaction was stopped with HCl 6 M solution and read in a spectrophotometer at 495 nm with endpoint.
The calculation of cell proliferation was performed using the formula: […]
O.D.: optical density captured by spectrophotometer NOTE: The Basal O.D. is the one found in the blank wells. […]

CSCC[C@H](N)C(=O)N[C@@H](Cc1ccccc1)C(=O)N[C@@H](Cc1ccc(O)cc1)C(=O)N1CCC[C@H]1C(=O)N[C@@H](CC(=O)O)C(=O)N[C@@H](CO)C(=O)N[C@@H](CCCNC(=N)N)C(=O)N[C@@H](CS)C(=O)N[C@@H](CCCNC(=N)N)C(=O)NCC(=O)N1CCC[C@H]1C(=O)N[C@@H](CO)C(=O)N[C@@H](CCC(=O)O)C(=O)N[C@H](C(=O)O)[C@@H](C)O [3-NAntC, [H]-MFYPDSRCRGPSET-[OH]]
percentage of cells in necrosis (MDAMB231 cell line [1]; MDAMB231, 24 and 48 h, 0.8 µg/mL): maintaining the percentage of cells in necrosis
increase of apoptosis rate (MDAMB231 cell line [1]; MDAMB231, 24 h, 0.8 µg/mL): about 20%
increase of apoptosis rate (MDAMB231 cell line [1]; MDAMB231, 48 h, 0.8 µg/mL): about 20%
increase of apoptosis rate (MDAMB231 cell line [1]; MDAMB231, 72 h, highest dosage): 28.73%
decrease in cells in G0/G1 (MDAMB231 cell line [2]): 8.72%
increase of G2/M percentage (MDAMB231 cell line [2]): 8.08%
decrease of proliferation rate (BrdU) (MDAMB231 cells): 33%
